Results taken from PubChem BioAssay AID2060616 (Molecular Pharmacology Branch, DTP, NCI, 2025).
pIC50: −log10 of the molar value. Values joined by “and” are separate entries in the source; they are usually repeats but may differ in a detail not shown here. Identical values can stand only once.

Tested on: 377384-186-R-J1-PDC complex spheroid viability
Assay: Anticancer human tumor 377384-186-R-J1-PDC patient-derived pancreatic carcinoma cell line growth inhibition [CLK]
Conditions: for viability, T/C: stronger effect = lower value; active means viability on the fitted dose curve at most 10% of control; inactive means the rest
Method in brief: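 Multi-cell-type spheroids combined patient-derived tumor cells with HUVEC endothelial cells and human mesenchymal stem cells. Paired agents were dosed in half-log steps down from about clinical Cmax, or from 10 microM where Cmax was unknown.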

[1] = curve of first compound, second compound 0.0316 µM
[2] = curve of first compound, second compound 0.1 µM
[3] = curve of first compound, second compound 0.316 µM
[4] = curve of first compound, second compound 1 µM
[5] = curve of first compound, second compound 3.16 µM
[6] = curve of first compound, second compound 10 µM
[7] = second compound 0.0316 µM, first compound 0.0316 µM
[8] = second compound 0.0316 µM, first compound 0.1 µM
[9] = second compound 0.0316 µM, first compound 0.316 µM
[10] = second compound 0.0316 µM, first compound 1 µM
[11] = second compound 0.0316 µM, first compound 3.16 µM
[12] = second compound 0.0316 µM, first compound 10 µM
[13] = second compound 0.1 µM, first compound 0.0316 µM
[14] = second compound 0.1 µM, first compound 0.1 µM
[15] = second compound 0.1 µM, first compound 0.316 µM
[16] = second compound 0.1 µM, first compound 1 µM
[17] = second compound 0.1 µM, first compound 3.16 µM
[18] = second compound 0.1 µM, first compound 10 µM
[19] = second compound 0.316 µM, first compound 0.0316 µM
[20] = second compound 0.316 µM, first compound 0.1 µM
[21] = second compound 0.316 µM, first compound 0.316 µM
[22] = second compound 0.316 µM, first compound 1 µM
[23] = second compound 0.316 µM, first compound 3.16 µM
[24] = second compound 0.316 µM, first compound 10 µM
[25] = second compound 1 µM, first compound 0.0316 µM
[26] = second compound 1 µM, first compound 0.1 µM
[27] = second compound 1 µM, first compound 0.316 µM
[28] = second compound 1 µM, first compound 1 µM
[29] = second compound 1 µM, first compound 3.16 µM
[30] = second compound 1 µM, first compound 10 µM
[31] = second compound 3.16 µM, first compound 0.0316 µM
[32] = second compound 3.16 µM, first compound 0.1 µM
[33] = second compound 3.16 µM, first compound 0.316 µM
[34] = second compound 3.16 µM, first compound 1 µM
[35] = second compound 3.16 µM, first compound 3.16 µM
[36] = second compound 3.16 µM, first compound 10 µM
[37] = second compound 10 µM, first compound 0.0316 µM
[38] = second compound 10 µM, first compound 0.1 µM
[39] = second compound 10 µM, first compound 0.316 µM
[40] = second compound 10 µM, first compound 1 µM
[41] = second compound 10 µM, first compound 3.16 µM
[42] = second compound 10 µM, first compound 10 µM
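Further: spheroids exposed to agents for 7 days before reading.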
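Wherever viability, T/C is given: luminescence signal used as a stand-in for viable cells.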

O=c1[nH]cc(F)c(=O)[nH]1 + CN1CCN(c2cc(C(=O)Nc3cc4cc(-c5cnn(C)c5)ccc4cn3)ccn2)CC1
inactive: viability, T/C [7] 121% | viability, T/C [8] 122% | viability, T/C [9] 91.6% | viability, T/C [10] 84.5% | viability, T/C [11] 60.1% | viability, T/C [12] 46.5% | viability, T/C [13] 104% | viability, T/C [14] 107% | viability, T/C [15] 92.2% | viability, T/C [16] 94.4% | viability, T/C [17] 65.4% | viability, T/C [18] 56.1% | viability, T/C [19] 25.5% | viability, T/C [20] 28.4% | viability, T/C [21] 22.2% | viability, T/C [22] 29.3% | viability, T/C [23] 28.3% | viability, T/C [24] 21.5%
> 7.50: pIC50 [3] | pIC50 [4] | pIC50 [5] | pIC50 [6]
5.12: pIC50 [1]
active: viability, T/C [25] 1.11% | viability, T/C [26] 0.76% | viability, T/C [27] 1.57% | viability, T/C [28] 1.15% | viability, T/C [29] 0.86% | viability, T/C [30] 1.02% | viability, T/C [31] 0.29% | viability, T/C [32] 0.87% | viability, T/C [33] 1.83% | viability, T/C [34] 0.32% | viability, T/C [35] 0.25% | viability, T/C [36] 0.31% | viability, T/C [37] 0.28% | viability, T/C [38] 0.51% | viability, T/C [39] 0.49% | viability, T/C [40] 0.42% | viability, T/C [41] 0.53% | viability, T/C [42] 1.86%
< 5.00: pIC50 [2]

COC1C=CCC(C)C(C)S(=O)(=O)NC(=O)c2ccc3c(c2)N(CC2CCC21)CC1(CCCc2cc(Cl)ccc21)CO3 (stereo not drawn)
5.36 and 5.47: pIC50 (curve of compound)
inactive: viability, T/C (compound 0.0316 µM) 88.4% and 110% | viability, T/C (compound 0.1 µM) 101% and 94.2% | viability, T/C (compound 0.316 µM) 82% and 79% | viability, T/C (compound 1 µM) 96.1% and 69.6% | viability, T/C (compound 3.16 µM) 65.8% and 61.7% | viability, T/C (compound 10 µM) 11.2% and 20.1%

O=c1[nH]cc(F)c(=O)[nH]1
5.55 and 5.52: pIC50 (curve of compound)
inactive: viability, T/C (compound 0.0316 µM) 88.5% and 94.6% | viability, T/C (compound 0.1 µM) 82.7% and 110% | viability, T/C (compound 0.316 µM) 93.3% and 88.5% | viability, T/C (compound 1 µM) 68.9% and 68.5% | viability, T/C (compound 3.16 µM) 50.5% and 51.5% | viability, T/C (compound 10 µM) 45.1% and 41.7%

CCCS(=O)(=O)Nc1ccc(F)c(C(=O)c2c[nH]c3ncc(-c4ccc(Cl)cc4)cc23)c1F + CN1CCN(c2cc(C(=O)Nc3cc4cc(-c5cnn(C)c5)ccc4cn3)ccn2)CC1
active: viability, T/C [25] 1.07% | viability, T/C [26] 3.44% | viability, T/C [27] 1.53% | viability, T/C [28] 1.74% | viability, T/C [29] 1.66% | viability, T/C [30] 1.39% | viability, T/C [31] 0.5% | viability, T/C [32] 0.57% | viability, T/C [33] 1.26% | viability, T/C [34] 0.82% | viability, T/C [35] 0.51% | viability, T/C [36] 0.48% | viability, T/C [37] 0.54% | viability, T/C [38] 0.62% | viability, T/C [39] 0.58% | viability, T/C [40] 0.68% | viability, T/C [41] 0.66% | viability, T/C [42] 0.26%
< 5.00: pIC50 [1]
5.05: pIC50 [2]
> 7.50: pIC50 [3] | pIC50 [4] | pIC50 [5] | pIC50 [6]
inactive: viability, T/C [7] 122% | viability, T/C [8] 122% | viability, T/C [9] 141% | viability, T/C [10] 140% | viability, T/C [11] 117% | viability, T/C [12] 64.8% | viability, T/C [13] 117% | viability, T/C [14] 78.5% | viability, T/C [15] 135% | viability, T/C [16] 121% | viability, T/C [17] 97.1% | viability, T/C [18] 44.4% | viability, T/C [19] 34.8% | viability, T/C [20] 21.6% | viability, T/C [21] 31.2% | viability, T/C [22] 33.4% | viability, T/C [23] 28.9% | viability, T/C [24] 15.4%
